Active and inactive are the calls of the source. No cut-off for these calls is given here.
Columns and labels:
MV4-11 [1] = assay: Anticancer activity against human MV4-11 cells expressing FLT3-ITD mutant; format: functional, cell-based
MOLM-13 = assay: Anticancer activity against human MOLM-13 cells; format: functional, cell-based
THP-1 = assay: Anticancer activity against human THP-1 cells; format: functional, cell-based
MV4-11 [2] = assay: Induction of cell cycle arrest in human MV4-11 cells assessed as accumulation of G1 phase cells at 10 uM by PI staining based flow cytometric analysis (reference value: 60.77 % ); format: functional
MV4-11 [3] = assay: Induction of cell cycle arrest in human MV4-11 cells assessed as accumulation of G1 phase cells at 0.01 uM by PI staining based flow cytometric analysis (reference value: 60.77 % ); format: functional
MV4-11 [4] = assay: Induction of cell cycle arrest in human MV4-11 cells assessed as S phase cells at 0.001 uM by PI staining based flow cytometric analysis (reference value: 26.62 % ); format: functional
MV4-11 [5] = assay: Induction of cell cycle arrest in human MV4-11 cells assessed as G2 phase cells at 10 uM by PI staining based flow cytometric analysis (reference value: 12.61 % ); format: functional
MV4-11 [6] = assay: Induction of cell cycle arrest in human MV4-11 cells assessed as G2 phase cells at 0.01 uM by PI staining based flow cytometric analysis (reference value: 12.61 % ); format: functional
[7] = target: T1, Signal transducer and activator of transcription 5A (Homo sapiens) (UniProt P42229); assay: Inhibition of STAT5 phosphorylation in human MV4-11 cells at 0.01 uM incubated for 1 hrs by immunoblotting analysis; format: cell-based
T1 sequence (whole entry): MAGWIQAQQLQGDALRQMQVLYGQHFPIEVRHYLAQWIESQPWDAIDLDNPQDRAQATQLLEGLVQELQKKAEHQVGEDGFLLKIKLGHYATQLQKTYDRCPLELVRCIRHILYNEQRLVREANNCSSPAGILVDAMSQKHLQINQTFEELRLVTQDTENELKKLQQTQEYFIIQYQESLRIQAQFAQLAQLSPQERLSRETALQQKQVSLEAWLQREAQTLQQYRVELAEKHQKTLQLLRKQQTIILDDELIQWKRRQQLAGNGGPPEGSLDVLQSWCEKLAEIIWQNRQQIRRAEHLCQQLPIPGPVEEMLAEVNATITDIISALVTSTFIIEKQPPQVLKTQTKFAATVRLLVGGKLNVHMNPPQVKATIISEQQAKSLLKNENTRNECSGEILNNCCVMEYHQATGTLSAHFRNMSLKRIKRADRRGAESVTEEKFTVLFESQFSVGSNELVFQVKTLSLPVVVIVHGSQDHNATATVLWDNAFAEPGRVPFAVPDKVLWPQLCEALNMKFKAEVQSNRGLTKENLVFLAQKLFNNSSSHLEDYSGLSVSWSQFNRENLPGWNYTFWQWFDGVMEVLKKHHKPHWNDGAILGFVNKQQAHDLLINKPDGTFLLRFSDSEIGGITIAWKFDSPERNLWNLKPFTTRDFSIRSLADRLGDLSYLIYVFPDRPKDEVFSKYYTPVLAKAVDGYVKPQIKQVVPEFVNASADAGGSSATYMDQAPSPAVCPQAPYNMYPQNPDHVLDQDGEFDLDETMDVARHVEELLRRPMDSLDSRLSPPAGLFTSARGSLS

MV4-11 [8] = assay: Induction of cell cycle arrest in human MV4-11 cells assessed as accumulation of G1 phase cells at 0.1 uM by PI staining based flow cytometric analysis (reference value: 60.77 % ); format: functional
MV4-11 [9] = assay: Induction of cell cycle arrest in human MV4-11 cells assessed as S phase cells at 0.01 uM by PI staining based flow cytometric analysis (reference value: 26.62 % ); format: functional
CCRF-CEM = assay: Anticancer activity against FLT3-independent human CCRF-CEM cells; format: functional, cell-based
K562 = assay: Anticancer activity against human K562 cells; format: functional, cell-based
MCF7 = assay: Anticancer activity against human MCF7 cells; format: functional, cell-based
[10] = target: Cyclin-dependent kinase 9 (Homo sapiens) (UniProt P50750); assay: Inhibition of CDK9 (unknown origin)
Sequence of Cyclin-dependent kinase 9 (Homo sapiens) (P50750 whole entry): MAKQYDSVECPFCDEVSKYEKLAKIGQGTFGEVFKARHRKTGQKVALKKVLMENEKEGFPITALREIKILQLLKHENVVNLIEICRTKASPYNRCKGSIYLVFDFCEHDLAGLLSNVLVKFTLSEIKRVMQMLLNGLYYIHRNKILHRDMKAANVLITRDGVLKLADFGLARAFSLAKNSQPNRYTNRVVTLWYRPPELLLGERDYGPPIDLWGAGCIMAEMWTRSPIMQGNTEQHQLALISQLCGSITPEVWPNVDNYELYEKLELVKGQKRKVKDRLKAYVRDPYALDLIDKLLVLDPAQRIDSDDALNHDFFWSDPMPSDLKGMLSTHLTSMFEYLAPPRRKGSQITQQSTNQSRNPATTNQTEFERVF

MV4-11 [11] = assay: Induction of cell cycle arrest in human MV4-11 cells assessed as G2 phase cells at 0.1 uM by PI staining based flow cytometric analysis (reference value: 12.61 % ); format: functional
MV4-11 [12] = assay: Induction of cell cycle arrest in human MV4-11 cells assessed as accumulation of G1 phase cells at 0.001 uM by PI staining based flow cytometric analysis (reference value: 60.77 % ); format: functional
MV4-11 [13] = assay: Induction of cell cycle arrest in human MV4-11 cells assessed as S phase cells at 10 uM by PI staining based flow cytometric analysis (reference value: 26.62 % ); format: functional
MV4-11 [14] = assay: Induction of cell cycle arrest in human MV4-11 cells assessed as accumulation of G1 phase cells at 1 uM by PI staining based flow cytometric analysis (reference value: 60.77 % ); format: functional
MV4-11 [15] = assay: Induction of cell cycle arrest in human MV4-11 cells assessed as G2 phase cells at 1 uM by PI staining based flow cytometric analysis (reference value: 12.61 % ); format: functional
[16] = target: Mitogen-activated protein kinase; ERK1/ERK2 (Homo sapiens) (UniProt P27361+P28482); assay: Inhibition of ERK1/2 phosphorylation at Thr202/Tyr204 residues in human MV4-11 cells at 0.1 uM incubated for 1 hrs by immunoblotting analysis; format: cell-based
Sequence of Mitogen-activated protein kinase; ERK1/ERK2 (Homo sapiens) (P27361 whole entry, looked up): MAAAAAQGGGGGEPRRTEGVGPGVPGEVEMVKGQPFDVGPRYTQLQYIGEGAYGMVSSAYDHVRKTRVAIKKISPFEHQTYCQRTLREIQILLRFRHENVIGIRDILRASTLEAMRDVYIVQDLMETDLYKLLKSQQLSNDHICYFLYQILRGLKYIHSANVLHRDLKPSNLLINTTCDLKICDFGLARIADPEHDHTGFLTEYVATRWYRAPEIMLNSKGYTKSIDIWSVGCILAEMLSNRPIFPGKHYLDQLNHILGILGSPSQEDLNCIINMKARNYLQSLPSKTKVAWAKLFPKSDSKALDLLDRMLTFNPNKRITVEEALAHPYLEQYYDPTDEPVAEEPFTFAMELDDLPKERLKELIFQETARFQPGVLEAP
Sequence of Mitogen-activated protein kinase; ERK1/ERK2 (Homo sapiens) (P28482 whole entry, looked up): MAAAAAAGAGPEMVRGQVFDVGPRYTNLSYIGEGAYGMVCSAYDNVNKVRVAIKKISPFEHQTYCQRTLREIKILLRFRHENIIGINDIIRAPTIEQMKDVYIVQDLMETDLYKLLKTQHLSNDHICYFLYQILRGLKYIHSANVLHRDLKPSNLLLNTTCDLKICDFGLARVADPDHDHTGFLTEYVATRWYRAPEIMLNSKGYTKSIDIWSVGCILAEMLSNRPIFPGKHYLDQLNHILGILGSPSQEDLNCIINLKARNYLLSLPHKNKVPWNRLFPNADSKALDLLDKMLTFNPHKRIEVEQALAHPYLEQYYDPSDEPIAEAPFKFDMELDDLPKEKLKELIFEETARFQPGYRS

MV4-11 [17] = assay: Induction of cell cycle arrest in human MV4-11 cells assessed as S phase cells at 0.1 uM by PI staining based flow cytometric analysis (reference value: 26.62 % ); format: functional
MV4-11 [18] = assay: Induction of cell cycle arrest in human MV4-11 cells assessed as S phase cells at 1 uM by PI staining based flow cytometric analysis (reference value: 26.62 % ); format: functional
[19] = target: Receptor-type tyrosine-protein kinase FLT3 (Homo sapiens) (UniProt P36888); assay: Inhibition of FLT3 autophosphorylation at tyrosine 589/591 residues in human MV4-11 cells at 0.01 uM incubated for 1 hrs by immunoblotting analysis; format: cell-based
Sequence of Receptor-type tyrosine-protein kinase FLT3 (Homo sapiens) (P36888 whole entry): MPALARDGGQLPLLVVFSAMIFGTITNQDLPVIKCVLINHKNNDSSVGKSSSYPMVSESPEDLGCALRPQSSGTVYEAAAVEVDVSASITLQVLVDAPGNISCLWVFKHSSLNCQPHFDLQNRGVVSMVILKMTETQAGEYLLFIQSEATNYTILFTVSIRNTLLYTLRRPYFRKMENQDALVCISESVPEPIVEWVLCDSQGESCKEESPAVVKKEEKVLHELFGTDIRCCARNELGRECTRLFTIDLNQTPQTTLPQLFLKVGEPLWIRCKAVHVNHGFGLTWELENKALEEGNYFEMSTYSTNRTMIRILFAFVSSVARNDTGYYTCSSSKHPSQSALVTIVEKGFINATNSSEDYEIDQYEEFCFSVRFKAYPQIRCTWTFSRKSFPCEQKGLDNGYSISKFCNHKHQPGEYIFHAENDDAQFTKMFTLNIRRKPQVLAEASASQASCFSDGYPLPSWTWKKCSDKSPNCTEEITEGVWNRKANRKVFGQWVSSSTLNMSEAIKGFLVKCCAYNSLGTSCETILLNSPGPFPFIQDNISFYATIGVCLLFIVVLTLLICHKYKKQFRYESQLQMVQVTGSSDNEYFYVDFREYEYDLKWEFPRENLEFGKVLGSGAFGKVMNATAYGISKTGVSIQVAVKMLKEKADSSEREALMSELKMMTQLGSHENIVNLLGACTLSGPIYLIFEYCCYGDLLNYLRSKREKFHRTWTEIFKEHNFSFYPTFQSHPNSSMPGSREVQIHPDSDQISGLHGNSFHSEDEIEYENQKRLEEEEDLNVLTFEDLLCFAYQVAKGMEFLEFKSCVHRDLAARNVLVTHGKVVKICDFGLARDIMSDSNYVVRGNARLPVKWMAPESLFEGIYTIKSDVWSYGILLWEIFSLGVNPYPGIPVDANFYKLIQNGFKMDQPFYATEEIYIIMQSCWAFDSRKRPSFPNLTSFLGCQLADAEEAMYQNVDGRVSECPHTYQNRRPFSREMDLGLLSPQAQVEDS

[20] = target: Cyclin-dependent kinase 2 (Homo sapiens) (UniProt P24941); assay: Inhibition of CDK2 (unknown origin)
MV4-11 [21] = assay: Induction of cell cycle arrest in human MV4-11 cells assessed as G2 phase cells at 0.001 uM by PI staining based flow cytometric analysis (reference value: 12.61 % ); format: functional

SMILES: N[C@H]1CC[C@H](Nc2cc(Nc3cccc(CN4CCOCC4)c3)n3ncc(C4CCCC4)c3n2)CC1
- Activity (MV4-11 [1]): Active
- Activity (MOLM-13): Active

SMILES: NCCCCNc1cc(Nc2ccc(CN3CCOCC3)cc2)n2ncc(C3CCCC3)c2n1
- Activity (MV4-11 [1]): Active
- Activity (MOLM-13): Active

SMILES: CC[C@@H](CO)Nc1cc(Nc2ccc(-c3cccs3)nc2)n2ncc(C3CCCC3)c2n1
- Activity (MV4-11 [1]): Active
- Activity (MOLM-13): Active

SMILES: N[C@H]1CC[C@H](Nc2cc(NCc3ccc(Br)cc3)n3ncc(C4CCCC4)c3n2)CC1
- Activity (MV4-11 [1]): Active
- Activity (MOLM-13): Active

SMILES: NCCCCNc1cc(NCc2cccc(CN3CCOCC3)c2)n2ncc(C3CCCC3)c2n1
- Activity (MV4-11 [1]): Active
- Activity (MOLM-13): Active

SMILES: N[C@H]1CC[C@H](Nc2cc(Nc3ccc(N4CC5(COC5)C4)cc3)n3ncc(C4CCCC4)c3n2)CC1
- Activity (MV4-11 [1]): Active
- Activity (MOLM-13): Active

SMILES: N[C@H]1CC[C@H](Nc2cc(Nc3ccc(CN4CCOCC4)cc3)n3ncc(C4CCCC4)c3n2)CC1
- Activity (THP-1): Active
- Activity (MV4-11 [2]): 75.69%
- Activity (MV4-11 [3]): 61.96%
- Activity (MV4-11 [4]): 26.03%
- Activity (MV4-11 [5]): 5.93%
- Activity (MV4-11 [1]): Active
- Activity (MV4-11 [6]): 12.79%
- inhibition [7]: Active
- Activity (MV4-11 [8]): 86.23%
- Activity (MV4-11 [9]): 25.25%
- Activity (CCRF-CEM): Active
- Activity (K562): Active
- Activity (MCF7): Active
- inhibition [10]: Active
- Activity (MV4-11 [11]): 5.11%
- Activity (MV4-11 [12]): 59.36%
- Activity (MV4-11 [13]): 18.38%
- Activity (MV4-11 [14]): 76.39%
- Activity (MOLM-13): Active
- Activity (MV4-11 [15]): 7.13%
- inhibition [16]: Active
- Activity (MV4-11 [17]): 8.66%
- Activity (MV4-11 [18]): 16.48%
- inhibition [19]: Active
- inhibition [20]: Active
- Activity (MV4-11 [21]): 14.62%

SMILES: N[C@H]1CC[C@H](Nc2cc(Nc3ccc(-c4cccs4)nc3)n3ncc(C4CCCC4)c3n2)CC1
- Activity (THP-1): Active
- Activity (MV4-11 [1]): Active
- Activity (CCRF-CEM): Active
- Activity (K562): Active
- Activity (MCF7): Active
- inhibition [10]: Active
- Activity (MOLM-13): Active
- inhibition [20]: Active

Source: ChEMBL document CHEMBL5236627, “Synthesis and biological activity evaluation of novel 3,5,7-trisubstituted pyrazolo[1,5-a]pyrimidines” (2023)
